{"source": "patent US20250263370A1", "about": "(Tay Therapeutics Limited, priority 2022, published 2025)", "key": {"[1]": {"system": "collagen-induced arthritis", "assay": "Histopathologic analysis of H&E-stained hind limbs of CIA rats", "type": "in vivo, Lewis rat", "excerpt": "Hind limbs were collected following euthanasia, with the left limb being used for H&E staining.\nH&E-stained slides of designated tissues from animals were transferred to an independent pathologist for microscopic evaluation (SPFBio). Samples were assigned the histologic grades based on the severity of change from tissue where CIA was not induced. Histology grades assigned were as follows: grade 1 (minimal change), grade 2 (mild change), grade 3 (moderate change), grade 4 (marked change), and grade 5 (severe change).\nModerate inflammation was also associated with increased edema fluid, fibrin, and cellular debris. Marked mixed cell inflammation was characterized by dense, widespread accumulations of neutrophils and macrophages with lesser number of lymphocytes within one or more joint spaces, synovium and periarticular soft tissues. Marked inflammation was also associated with abundant edema fluid, fibrin, and cellular debris.\nMarked granulation tissue (pannus) was associated with inflammation and was characterized by widespread fibrovascular connective tissue that expanded/replaced the periarticular soft tissues of one or more joints, extended into/expanded joint spaces, was contiguous with areas of erosion/ulcer in articular cartilage and/or increased eroded surface of bone, and variably extended along the diaphysis.\nInstances of minimal increased eroded surface were not associated with fragments of bone contiguous and/or surrounded by granulation tissue. […] In some areas, increased eroded surfaces were contiguous with areas of erosion/ulcer in the articular cartilages. Instance of marked increased eroded surface were often associated with fragments of bone contiguous with and/or surrounded by granulation tissue.\nThis observation was typically most pronounced at joint margins (transition zone). The ulceration was often associated with inflammation and granulation tissue extending through the defect to the subchondral bone.\nMarked increased periosteal bone (periosteal bone formation) was characterized by extensive areas of increased bone matrix and numerous prominent osteoblasts lining trabecular surfaces along the metaphysis and/or diaphysis of one or more bones. In some areas, increased periosteal bone was contiguous with increased eroded surface and/or erosion/ulcer at articular cartilage."}, "[2]": {"assay": "Pharmacokinetics and plasma concentration of Example 101 in Lewis rats after oral administration (CIA study)", "type": "in vivo, Lewis rat"}, "[3]": {"conditions": "30 mg/kg, hind limbs, CIA induced, 8 animals examined"}, "[4]": {"conditions": "CIA rats, 3 mg/kg (group 5), hind limb H&E"}, "[5]": {"conditions": "CIA rats, 10 mg/kg (group 6), hind limb H&E"}, "[6]": {"conditions": "CIA rats, 30 mg/kg (group 7), hind limb H&E"}, "[7]": {"conditions": "Lewis rats, oral, 10 mg/kg, day 20, mean"}}, "note": "“And” between values parts separate entries of the source, which are not always exact repeats. Equal entries are not always repeated. “Also recorded” adds a separate entry of the source. Where two headings read alike, the source gives them in different places.", "data": [{"smiles": "CNC(=O)c1[nH]c(C(=O)NC2CCC2)cc1O[C@@H](C)c1ccccc1", "note": "(stereo in doubt) [Example 101, N^5-cyclobutyl-N^2-methyl-3-(1-phenylethoxy)-1H-pyrrole-2,5-dicarboxamide]", "values": [{"measurement": "Number of animals: Erosion/Ulcer, cartilaginous, Moderate", "setting": "[1]; [3]", "value": 0}, {"measurement": "Number of animals: Granulation tissue, Marked", "setting": "[1]; [3]", "value": 0}, {"measurement": "Number of animals: Granulation tissue, Mild", "setting": "[1]; [3]", "value": 1}, {"measurement": "Number of animals: Granulation tissue, Minimal", "setting": "[1]; [3]", "value": 2}, {"measurement": "Number of animals: Granulation tissue, Moderate", "setting": "[1]; [3]", "value": 4}, {"measurement": "Number of animals: Increased bone, periosteum, Marked", "setting": "[1]; [3]", "value": 0}, {"measurement": "Number of animals: Increased bone, periosteum, Mild", "setting": "[1]; [3]", "value": 2}, {"measurement": "Number of animals: Increased bone, periosteum, Minimal", "setting": "[1]; [3]", "value": 1}, {"measurement": "Number of animals: Increased bone, periosteum, Moderate", "setting": "[1]; [3]", "value": 0}, {"measurement": "Number of animals: Increased eroded surface, bone, Marked", "setting": "[1]; [3]", "value": 0}, {"measurement": "Number of animals: Increased eroded surface, bone, Mild", "setting": "[1]; [3]", "value": 4}, {"measurement": "Number of animals: Increased eroded surface, bone, Minimal", "setting": "[1]; [3]", "value": 0}, {"measurement": "Number of animals: Increased eroded surface, bone, Moderate", "setting": "[1]; [3]", "value": 0}, {"measurement": "Number of animals: Mixed cell inflammation, Marked", "setting": "[1]; [3]", "value": 0}, {"measurement": "Number of animals: Mixed cell inflammation, Mild", "setting": "[1]; [3]", "value": 3}, {"measurement": "Number of animals: Mixed cell inflammation, Minimal", "setting": "[1]; [3]", "value": 0}, {"measurement": "Number of animals: Mixed cell inflammation, Moderate", "setting": "[1]; [3]", "value": 4}, {"measurement": "Number of animals: No Visible Lesions", "setting": "[1]; [3]", "value": 1}, {"measurement": "samples with pathologic observations", "setting": "[1]; CIA rats, 3 mg/kg (group 5)", "value": "All samples"}, {"measurement": "erosion/ulcer in articular cartilage", "setting": "[1]; [4]", "value": "mild to moderate"}, {"measurement": "granulation tissue (pannus)", "setting": "[1]; [4]", "value": "mild and mild to moderate"}, {"measurement": "increased eroded surface of bone (bone resorption)", "setting": "[1]; [4]", "value": "mild to moderate"}, {"measurement": "increased periosteal bone (periosteal bone formation)", "setting": "[1]; [4]", "value": "mild to moderate"}, {"measurement": "mixed cell inflammation", "setting": "[1]; [4]", "value": "moderate to marked"}, {"measurement": "samples with pathologic observations", "setting": "[1]; CIA rats, 10 mg/kg (group 6)", "value": "All samples"}, {"measurement": "erosion/ulcer in articular cartilage", "setting": "[1]; [5]", "value": "mild and moderate"}, {"measurement": "granulation tissue (pannus)", "setting": "[1]; [5]", "value": "mild and moderate"}, {"measurement": "increased eroded surface of bone (bone resorption)", "setting": "[1]; [5]", "value": "mild and moderate"}, {"measurement": "increased periosteal bone (periosteal bone formation)", "setting": "[1]; [5]", "value": "minimal; also recorded: moderate"}, {"measurement": "mixed cell inflammation", "setting": "[1]; [5]", "value": "moderate"}, {"measurement": "samples with no recorded pathological observations", "setting": "[1]; CIA rats, 30 mg/kg (group 7)", "value": "One out of eight"}, {"measurement": "erosion in the articular cartilages", "setting": "[1]; [6]", "value": "mild"}, {"measurement": "granulation tissue (pannus)", "setting": "[1]; [6]", "value": "mild and moderate"}, {"measurement": "increased eroded surface of bone (bone resorption)", "setting": "[1]; [6]", "value": "mild"}, {"measurement": "increased periosteal bone (periosteal bone formation)", "setting": "[1]; [6]", "value": "mild"}, {"measurement": "mixed cell inflammation", "setting": "[1]; [6]", "value": "mild and moderate"}, {"measurement": "pathologic observations after microscopic evaluation, overall", "setting": "[1]; CIA rats, 3, 10 and 30 mg/kg (Groups 5-7)", "value": "at lower levels relative to samples from animals in the CIA-induced group (Group 2) in a dose-dependent manner"}, {"measurement": "Plasma concentration", "setting": "[2]; Day 21, Group 5 (CIA), 3 mg/kg, per animal", "value": "37.5 ng/mL and 59.4 ng/mL and 64.9 ng/mL and 49.5 ng/mL and 65.2 ng/mL and 71.9 ng/mL and 69.6 ng/mL"}, {"measurement": "Plasma concentration", "setting": "[2]; Day 21, Group 6 (CIA), 10 mg/kg, per animal", "value": "270 ng/mL and 134 ng/mL and 209 ng/mL and 281 ng/mL and 251 ng/mL and 313 ng/mL and 175 ng/mL and 28.4 ng/mL"}, {"measurement": "Plasma concentration", "setting": "[2]; Day 21, Group 7 (CIA), 30 mg/kg, per animal", "value": "1620 ng/mL and 1260 ng/mL and 1430 ng/mL and 1220 ng/mL and 1350 ng/mL and 2000 ng/mL and 1440 ng/mL"}, {"measurement": "day 20 plasma concentration versus dose", "setting": "[2]; Lewis rats, oral administration", "value": "appeared to increase in a dose-dependent manner"}, {"measurement": "AUClast/D", "setting": "[2]; [7]", "value": "528 (ng·h/mL)/(mg/kg)"}, {"measurement": "AUC—% Extrap—obs", "setting": "[2]; [7]", "value": 1.11, "unit": "%"}, {"measurement": "time at which plasma levels peaked after the second daily dose", "setting": "[2]; Lewis rats, oral, second daily dose administered at 8 h", "value": 10, "unit": "h"}, {"measurement": "concentration at 21 day", "setting": "[2]; Lewis, rat, plasma, oral, 3 mg/kg, Day 21, Group 5 (CIA), 3 mg/kg, per animal, read-out: Plasma Concentration", "value": 54.9, "unit": "ng/mL"}, {"measurement": "concentration at 21 day", "setting": "[2]; Lewis, rat, plasma, oral, 3 mg/kg, Day 21, Group 5 (CIA), 3 mg/kg, read-out: Mean Plasma Concentration", "value": 59.1, "unit": "ng/mL"}, {"measurement": "concentration at 21 day", "setting": "[2]; Lewis, rat, plasma, oral, 10 mg/kg, Day 21, Group 6 (CIA), 10 mg/kg, read-out: Mean Plasma Concentration", "value": 208, "unit": "ng/mL"}, {"measurement": "concentration at 0.5 h", "setting": "[2]; Lewis, rat, plasma, oral, 10 mg/kg, oral, day 0, 10 mg/kg, 0.5 h, per test subject, read-out: Plasma concentration", "value": 738, "unit": "ng/mL"}, {"measurement": "concentration at 1 h", "setting": "[2]; Lewis, rat, plasma, oral, 10 mg/kg, oral, day 0, 10 mg/kg, 1 h, per test subject, read-out: Plasma concentration", "value": 1090, "unit": "ng/mL"}, {"measurement": "concentration at 2 h", "setting": "[2]; Lewis, rat, plasma, oral, 10 mg/kg, oral, day 0, 10 mg/kg, 2 h, per test subject, read-out: Plasma concentration", "value": 1110, "unit": "ng/mL"}, {"measurement": "concentration at 4 h", "setting": "[2]; Lewis, rat, plasma, oral, 10 mg/kg, oral, day 0, 10 mg/kg, 4 h, per test subject, read-out: Plasma concentration", "value": 1170, "unit": "ng/mL"}, {"measurement": "concentration at 8 h", "setting": "[2]; Lewis, rat, plasma, oral, 10 mg/kg, oral, day 0, 10 mg/kg, 8 h, per test subject, read-out: Plasma concentration", "value": 190, "unit": "ng/mL"}, {"measurement": "concentration at 10 h", "setting": "[2]; Lewis, rat, plasma, oral, 10 mg/kg, oral, day 0, 10 mg/kg, 10 h, per test subject, read-out: Plasma concentration", "value": 1880, "unit": "ng/mL"}, {"measurement": "concentration at 12 h", "setting": "[2]; Lewis, rat, plasma, oral, 10 mg/kg, oral, day 0, 10 mg/kg, 12 h, per test subject, read-out: Plasma concentration", "value": 772, "unit": "ng/mL"}, {"measurement": "concentration at 14 h", "setting": "[2]; Lewis, rat, plasma, oral, 10 mg/kg, oral, day 0, 10 mg/kg, 14 h, per test subject, read-out: Plasma concentration", "value": 324, "unit": "ng/mL"}, {"measurement": "concentration at 0.25 h", "setting": "[2]; Lewis, rat, plasma, oral, 10 mg/kg, oral, day 20, 10 mg/kg, 0.25 h, per test subject, read-out: Plasma concentration", "value": 1260, "unit": "ng/mL"}]}]}
